Values quoted from earlier work in patent US7851464B2, “Spirolactam aryl CGRP receptor antagonists” (Merck Sharp & Dohme Corp., priority 2005, dated 2010).
Ends that are not written are not given here.

Columns and labels:
rats = conditions: prior administration, Williamson et al. 1997
rat = conditions: Escott et al. 1995
marmoset = conditions: Doods et al. 2000

Compound | effect on increase of middle meningeal artery diameter (rats) | effect on increase of facial blood flow (rat) | effect on increase of facial blood flow (marmoset)
CGRP(8-37): a peptide CGRP antagonist; fragment of CGRP that lacks seven N-terminal amino acid residues (VTHRLAGLLSRSGGVVKNNFVPTNVGSKAF; ends and bridges not checked; UniProt P06881 90-119, looked up, fragment) | blocked | inhibited | –
NCCCC[C@H](NC(=O)[C@@H](Cc1cc(Br)c(O)c(Br)c1)NC(=O)N1CCC(N2Cc3ccccc3NC2=O)CC1)C(=O)N1CCN(c2ccncc2)CC1 [BIBN4096BS] | – | – | blocked
